Values after ≈ are worked out from the molar mass of the structure shown.
Tests used:
Assay type in all cases: functional
Staphylococcus aureus [1] = test: Antibacterial activity against methicillin-sensitive Staphylococcus aureus after 16 hrs by agar dilution method
Staphylococcus aureus [2] = test: Antibacterial activity against Staphylococcus aureus […] after 16 hrs by agar dilution method
Streptococcus pneumoniae = test: Antibacterial activity against penicillin-resistant Streptococcus pneumoniae after 16 hrs by agar dilution method
Staphylococcus aureus [3] = test: Antibacterial activity against methicillin-resistant Staphylococcus aureus after 16 hrs by agar dilution method
[4] = tested on: Staphylococcus epidermidis; test: Antibacterial activity against methicillin-sensitive Staphylococcus epidermidis after 16 hrs by agar dilution method
[5] = tested on: Staphylococcus epidermidis; test: Antibacterial activity against methicillin-resistant Staphylococcus epidermidis after 16 hrs by agar dilution method

Compound | MIC (Staphylococcus aureus [1]) | MIC (Staphylococcus aureus [2]) | MIC (Streptococcus pneumoniae) | MIC (Staphylococcus aureus [3]) | MIC [4] | MIC [5]
C=C[C@]1(C)C[C@@H](OC(=O)CSc2cccs2)[C@]2(C)[C@H](C)CC[C@]3(CCC(=O)[C@H]32)[C@@H](C)[C@@H]1O | 0.5 µg/mL (≈ 1.05 µM) | 0.5 µg/mL (≈ 1.05 µM) | 0.125 µg/mL (≈ 0.262 µM) | 0.5 µg/mL (≈ 1.05 µM) | 0.25 µg/mL (≈ 0.524 µM) | 0.25 µg/mL (≈ 0.524 µM)
C=C[C@]1(C)C[C@@H](OC(=O)CSc2nccs2)[C@]2(C)[C@H](C)CC[C@]3(CCC(=O)[C@H]32)[C@@H](C)[C@@H]1O | 0.5 µg/mL (≈ 1.05 µM) | 0.5 µg/mL (≈ 1.05 µM) | 0.5 µg/mL (≈ 1.05 µM) | 0.5 µg/mL (≈ 1.05 µM) | 0.25 µg/mL (≈ 0.523 µM) | 0.25 µg/mL (≈ 0.523 µM)
C=C[C@]1(C)C[C@@H](OC(=O)CSc2cnccn2)[C@]2(C)[C@H](C)CC[C@]3(CCC(=O)[C@H]32)[C@@H](C)[C@@H]1O | 0.125 µg/mL (≈ 0.264 µM) | 0.25 µg/mL (≈ 0.529 µM) | 0.125 µg/mL (≈ 0.264 µM) | 0.125 µg/mL (≈ 0.264 µM) | 0.125 µg/mL (≈ 0.264 µM) | 0.125 µg/mL (≈ 0.264 µM)
C=C[C@]1(C)C[C@@H](OC(=O)CSc2ncccn2)[C@]2(C)[C@H](C)CC[C@]3(CCC(=O)[C@H]32)[C@@H](C)[C@@H]1O | 0.125 µg/mL (≈ 0.264 µM) | 0.125 µg/mL (≈ 0.264 µM) | 0.125 µg/mL (≈ 0.264 µM) | 0.063 µg/mL (≈ 0.133 µM) | 0.125 µg/mL (≈ 0.264 µM) | 0.063 µg/mL (≈ 0.133 µM)
C=C[C@]1(C)C[C@@H](OC(=O)CSc2cccnn2)[C@]2(C)[C@H](C)CC[C@]3(CCC(=O)[C@H]32)[C@@H](C)[C@@H]1O | 0.125 µg/mL (≈ 0.264 µM) | 0.25 µg/mL (≈ 0.529 µM) | 0.125 µg/mL (≈ 0.264 µM) | 0.25 µg/mL (≈ 0.529 µM) | 0.063 µg/mL (≈ 0.133 µM) | 0.063 µg/mL (≈ 0.133 µM)
C=C[C@]1(C)C[C@@H](OC(=O)CSc2cccnc2)[C@]2(C)[C@H](C)CC[C@]3(CCC(=O)[C@H]32)[C@@H](C)[C@@H]1O | 0.125 µg/mL (≈ 0.265 µM) | 0.25 µg/mL (≈ 0.53 µM) | 0.125 µg/mL (≈ 0.265 µM) | 0.125 µg/mL (≈ 0.265 µM) | 0.125 µg/mL (≈ 0.265 µM) | 0.25 µg/mL (≈ 0.53 µM)
C=C[C@]1(C)C[C@@H](OC(=O)CSc2ccncc2)[C@]2(C)[C@H](C)CC[C@]3(CCC(=O)[C@H]32)[C@@H](C)[C@@H]1O | 0.063 µg/mL (≈ 0.134 µM) | 0.031 µg/mL (≈ 0.0657 µM) | 0.063 µg/mL (≈ 0.134 µM) | 0.063 µg/mL (≈ 0.134 µM) | 0.063 µg/mL (≈ 0.134 µM) | 0.063 µg/mL (≈ 0.134 µM)
C=C[C@]1(C)C[C@@H](OC(=O)CSc2cncc(C(=O)OC)c2)[C@]2(C)[C@H](C)CC[C@]3(CCC(=O)[C@H]32)[C@@H](C)[C@@H]1O | 1 µg/mL (≈ 1.89 µM) | 1 µg/mL (≈ 1.89 µM) | 0.25 µg/mL (≈ 0.472 µM) | 0.125 µg/mL (≈ 0.236 µM) | 1 µg/mL (≈ 1.89 µM) | 0.25 µg/mL (≈ 0.472 µM)
C=C[C@]1(C)C[C@@H](OC(=O)CSc2cncc(OC)c2)[C@]2(C)[C@H](C)CC[C@]3(CCC(=O)[C@H]32)[C@@H](C)[C@@H]1O | 0.125 µg/mL (≈ 0.249 µM) | 1 µg/mL (≈ 1.99 µM) | 0.125 µg/mL (≈ 0.249 µM) | 0.125 µg/mL (≈ 0.249 µM) | 2 µg/mL (≈ 3.99 µM) | 0.125 µg/mL (≈ 0.249 µM)
C=C[C@]1(C)C[C@@H](OC(=O)CSc2cncc(F)c2)[C@]2(C)[C@H](C)CC[C@]3(CCC(=O)[C@H]32)[C@@H](C)[C@@H]1O | 0.25 µg/mL (≈ 0.511 µM) | 0.5 µg/mL (≈ 1.02 µM) | 0.25 µg/mL (≈ 0.511 µM) | 0.25 µg/mL (≈ 0.511 µM) | 0.125 µg/mL (≈ 0.255 µM) | 0.25 µg/mL (≈ 0.511 µM)
C=C[C@]1(C)C[C@@H](OC(=O)CSc2ccc(CO)nc2)[C@]2(C)[C@H](C)CC[C@]3(CCC(=O)[C@H]32)[C@@H](C)[C@@H]1O | 0.063 µg/mL (≈ 0.126 µM) | 0.5 µg/mL (≈ 0.997 µM) | 0.063 µg/mL (≈ 0.126 µM) | 0.031 µg/mL (≈ 0.0618 µM) | 0.25 µg/mL (≈ 0.498 µM) | 0.031 µg/mL (≈ 0.0618 µM)
C=C[C@]1(C)C[C@@H](OC(=O)CSc2cncc(O)c2)[C@]2(C)[C@H](C)CC[C@]3(CCC(=O)[C@H]32)[C@@H](C)[C@@H]1O | 0.063 µg/mL (≈ 0.129 µM) | 0.125 µg/mL (≈ 0.256 µM) | 0.063 µg/mL (≈ 0.129 µM) | 0.063 µg/mL (≈ 0.129 µM) | 0.063 µg/mL (≈ 0.129 µM) | 0.063 µg/mL (≈ 0.129 µM)
C=C[C@]1(C)C[C@@H](OC(=O)CSc2ccc(N)nc2)[C@]2(C)[C@H](C)CC[C@]3(CCC(=O)[C@H]32)[C@@H](C)[C@@H]1O | 0.125 µg/mL (≈ 0.257 µM) | 0.125 µg/mL (≈ 0.257 µM) | 0.063 µg/mL (≈ 0.129 µM) | 0.063 µg/mL (≈ 0.129 µM) | 0.5 µg/mL (≈ 1.03 µM) | 0.063 µg/mL (≈ 0.129 µM)
C=C[C@]1(C)C[C@@H](OC(=O)CSc2cncc(/C=N/O)c2)[C@]2(C)[C@H](C)CC[C@]3(CCC(=O)[C@H]32)[C@@H](C)[C@@H]1O | 0.063 µg/mL (≈ 0.122 µM) | 0.063 µg/mL (≈ 0.122 µM) | 0.063 µg/mL (≈ 0.122 µM) | 0.063 µg/mL (≈ 0.122 µM) | 0.063 µg/mL (≈ 0.122 µM) | 0.063 µg/mL (≈ 0.122 µM)
C=C[C@]1(C)C[C@@H](OC(=O)CSc2cncc(/C=N/N)c2)[C@]2(C)[C@H](C)CC[C@]3(CCC(=O)[C@H]32)[C@@H](C)[C@@H]1O | 0.25 µg/mL (≈ 0.487 µM) | 0.25 µg/mL (≈ 0.487 µM) | 0.25 µg/mL (≈ 0.487 µM) | 0.25 µg/mL (≈ 0.487 µM) | 0.25 µg/mL (≈ 0.487 µM) | 0.25 µg/mL (≈ 0.487 µM)
C=C[C@]1(C)C[C@@H](OC(=O)CSc2cncc(/C=N/OC)c2)[C@]2(C)[C@H](C)CC[C@]3(CCC(=O)[C@H]32)[C@@H](C)[C@@H]1O | 0.125 µg/mL (≈ 0.236 µM) | 0.125 µg/mL (≈ 0.236 µM) | 0.5 µg/mL (≈ 0.946 µM) | 0.25 µg/mL (≈ 0.473 µM) | 0.25 µg/mL (≈ 0.473 µM) | 0.25 µg/mL (≈ 0.473 µM)
